{"source": "the supplement of paper PMC10307832", "assay_in_all_cases": "relative viability (nuclei count vs DMSO), 5 days (fraction); higher = more cells survive", "key": {"[1]": {"system": "NCI-H647", "method_in_brief": "(§1)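 For relative viability, nuclei counts in treated wells were divided by those in vehicle wells. Lung cancer cell lines had been pin-tool dosed in 1536-well plates the day after seeding and cultured for 5 days, then fixed and stained in one step (final 0.05% Triton X-100, 1% formaldehyde, 1 ug/ml Hoechst) and imaged at 4×. Doses were one drug alone or a fixed anchor-drug dose plus five library-drug doses (not always all listed) in √10 steps, and values are duplicate-plate medians.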"}, "[2]": {"system": "NCI-H1437", "method_in_brief": "as §1"}, "[3]": {"system": "NCI-H1651", "method_in_brief": "as §1"}, "[4]": {"system": "HCC-78", "method_in_brief": "as §1"}, "[5]": {"system": "NCI-H661", "method_in_brief": "as §1"}, "[6]": {"system": "NCI-H1395", "method_in_brief": "as §1"}, "[7]": {"system": "NCI-H1793", "method_in_brief": "as §1"}, "[8]": {"system": "NCI-H23", "method_in_brief": "as §1"}, "[9]": {"system": "NCI-H1734", "method_in_brief": "as §1"}, "[10]": {"system": "EMC-BAC-2", "method_in_brief": "as §1"}, "[11]": {"system": "LCLC-103H", "method_in_brief": "as §1"}, "[12]": {"system": "ABC-1", "method_in_brief": "as §1"}, "[13]": {"system": "NCI-H1792", "method_in_brief": "as §1"}, "[14]": {"system": "NCI-H2405", "method_in_brief": "as §1"}, "[15]": {"system": "RERF-LC-KJ", "method_in_brief": "as §1"}, "[16]": {"system": "NCI-H1915", "method_in_brief": "as §1"}, "[17]": {"system": "SK-LU-1", "method_in_brief": "as §1"}, "[18]": {"system": "201T", "method_in_brief": "as §1"}, "[19]": {"system": "EPLC-272H", "method_in_brief": "as §1"}, "[20]": {"system": "NCI-H2023", "method_in_brief": "as §1"}, "[21]": {"system": "NCI-H1975", "method_in_brief": "as §1"}, "[22]": {"system": "UMC-11", "method_in_brief": "as §1"}, "[23]": {"system": "LOU-NH91", "method_in_brief": "as §1"}}, "data": [{"smiles": "Cc1cnc(-c2cnc(NCCNc3ccc(C#N)cn3)nc2-c2ccc(Cl)cc2Cl)[nH]1", "note": "+ N=C(N)NC(=N)NCCc1ccccc1 [Phenformin] (partner 250 µM)", "values": [{"measurement": "relative viability", "setting": "[1]; first compound 0.08 µM", "value": 0.598}, {"measurement": "relative viability", "setting": "[1]; first compound 0.253 µM", "value": 0.362}, {"measurement": "relative viability", "setting": "[1]; first compound 0.8 µM", "value": 0.391}, {"measurement": "relative viability", "setting": "[1]; first compound 2.53 µM", "value": 0.28}, {"measurement": "relative viability", "setting": "[2]; first compound 0.08 µM", "value": 0.304}, {"measurement": "relative viability", "setting": "[2]; first compound 0.253 µM", "value": 0.357}, {"measurement": "relative viability", "setting": "[2]; first compound 0.8 µM", "value": 0.297}, {"measurement": "relative viability", "setting": "[2]; first compound 2.53 µM", "value": 0.295}, {"measurement": "relative viability", "setting": "[3]; first compound 0.08 µM", "value": 0.383}, {"measurement": "relative viability", "setting": "[3]; first compound 0.253 µM", "value": 0.494}, {"measurement": "relative viability", "setting": "[3]; first compound 0.8 µM", "value": 0.32}, {"measurement": "relative viability", "setting": "[3]; first compound 2.53 µM", "value": 0.324}, {"measurement": "relative viability", "setting": "[4]; first compound 0.08 µM", "value": 0.804}, {"measurement": "relative viability", "setting": "[4]; first compound 0.253 µM", "value": 0.675}, {"measurement": "relative viability", "setting": "[4]; first compound 0.8 µM", "value": 0.636}, {"measurement": "relative viability", "setting": "[4]; first compound 2.53 µM", "value": 0.645}, {"measurement": "relative viability", "setting": "[5]; first compound 0.08 µM", "value": 0.298}, {"measurement": "relative viability", "setting": "[5]; first compound 0.253 µM", "value": 0.295}, {"measurement": "relative viability", "setting": "[5]; first compound 0.8 µM", "value": 0.287}, {"measurement": "relative viability", "setting": "[5]; first compound 2.53 µM", "value": 0.314}, {"measurement": "relative viability", "setting": "[6]; first compound 0.08 µM", "value": 0.483}, {"measurement": "relative viability", "setting": "[6]; first compound 0.253 µM", "value": 0.424}, {"measurement": "relative viability", "setting": "[6]; first compound 0.8 µM", "value": 0.45}, {"measurement": "relative viability", "setting": "[6]; first compound 2.53 µM", "value": 0.431}, {"measurement": "relative viability", "setting": "[7]; first compound 0.08 µM", "value": 0.397}, {"measurement": "relative viability", "setting": "[7]; first compound 0.253 µM", "value": 0.333}, {"measurement": "relative viability", "setting": "[7]; first compound 0.8 µM", "value": 0.355}, {"measurement": "relative viability", "setting": "[7]; first compound 2.53 µM", "value": 0.375}, {"measurement": "relative viability", "setting": "[8]; first compound 0.08 µM", "value": 0.836}, {"measurement": "relative viability", "setting": "[8]; first compound 0.253 µM", "value": 0.69}, {"measurement": "relative viability", "setting": "[8]; first compound 0.8 µM", "value": 0.742}, {"measurement": "relative viability", "setting": "[8]; first compound 2.53 µM", "value": 0.782}, {"measurement": "relative viability", "setting": "[9]; first compound 0.08 µM", "value": 0.49}, {"measurement": "relative viability", "setting": "[9]; first compound 0.253 µM", "value": 0.379}, {"measurement": "relative viability", "setting": "[9]; first compound 0.8 µM", "value": 0.391}, {"measurement": "relative viability", "setting": "[9]; first compound 2.53 µM", "value": 0.355}, {"measurement": "relative viability", "setting": "[10]; first compound 0.08 µM", "value": 0.578}, {"measurement": "relative viability", "setting": "[10]; first compound 0.253 µM", "value": 0.507}, {"measurement": "relative viability", "setting": "[10]; first compound 0.8 µM", "value": 0.542}, {"measurement": "relative viability", "setting": "[10]; first compound 2.53 µM", "value": 0.467}, {"measurement": "relative viability", "setting": "[11]; first compound 0.08 µM", "value": 0.273}, {"measurement": "relative viability", "setting": "[11]; first compound 0.253 µM", "value": 0.342}, {"measurement": "relative viability", "setting": "[11]; first compound 0.8 µM", "value": 0.31}, {"measurement": "relative viability", "setting": "[11]; first compound 2.53 µM", "value": 0.3}, {"measurement": "relative viability", "setting": "[12]; first compound 0.08 µM", "value": 0.259}, {"measurement": "relative viability", "setting": "[12]; first compound 0.253 µM", "value": 0.246}, {"measurement": "relative viability", "setting": "[12]; first compound 0.8 µM", "value": 0.271}, {"measurement": "relative viability", "setting": "[12]; first compound 2.53 µM", "value": 0.195}, {"measurement": "relative viability", "setting": "[13]; first compound 0.08 µM", "value": 0.464}, {"measurement": "relative viability", "setting": "[13]; first compound 0.8 µM", "value": 0.329}, {"measurement": "relative viability", "setting": "[13]; first compound 2.53 µM", "value": 0.391}, {"measurement": "relative viability", "setting": "[14]; first compound 0.08 µM", "value": 0.385}, {"measurement": "relative viability", "setting": "[14]; first compound 0.253 µM", "value": 0.418}, {"measurement": "relative viability", "setting": "[14]; first compound 0.8 µM", "value": 0.398}, {"measurement": "relative viability", "setting": "[14]; first compound 2.53 µM", "value": 0.358}, {"measurement": "relative viability", "setting": "[15]; first compound 0.08 µM", "value": 0.436}, {"measurement": "relative viability", "setting": "[15]; first compound 0.253 µM", "value": 0.445}, {"measurement": "relative viability", "setting": "[15]; first compound 0.8 µM", "value": 0.426}, {"measurement": "relative viability", "setting": "[15]; first compound 2.53 µM", "value": 0.354}, {"measurement": "relative viability", "setting": "[16]; first compound 0.08 µM", "value": 0.378}, {"measurement": "relative viability", "setting": "[16]; first compound 0.253 µM", "value": 0.346}, {"measurement": "relative viability", "setting": "[16]; first compound 0.8 µM", "value": 0.356}, {"measurement": "relative viability", "setting": "[16]; first compound 2.53 µM", "value": 0.389}, {"measurement": "relative viability", "setting": "[17]; first compound 0.08 µM", "value": 0.649}, {"measurement": "relative viability", "setting": "[17]; first compound 0.253 µM", "value": 0.533}, {"measurement": "relative viability", "setting": "[17]; first compound 0.8 µM", "value": 0.576}, {"measurement": "relative viability", "setting": "[17]; first compound 2.53 µM", "value": 0.557}, {"measurement": "relative viability", "setting": "[18]; first compound 0.08 µM", "value": 0.469}, {"measurement": "relative viability", "setting": "[18]; first compound 0.8 µM", "value": 0.397}, {"measurement": "relative viability", "setting": "[18]; first compound 2.53 µM", "value": 0.473}, {"measurement": "relative viability", "setting": "[19]; first compound 0.08 µM", "value": 0.333}, {"measurement": "relative viability", "setting": "[19]; first compound 0.253 µM", "value": 0.318}, {"measurement": "relative viability", "setting": "[19]; first compound 0.8 µM", "value": 0.315}, {"measurement": "relative viability", "setting": "[19]; first compound 2.53 µM", "value": 0.316}, {"measurement": "relative viability", "setting": "[20]; first compound 0.08 µM", "value": 0.436}, {"measurement": "relative viability", "setting": "[20]; first compound 0.253 µM", "value": 0.413}, {"measurement": "relative viability", "setting": "[20]; first compound 0.8 µM", "value": 0.422}, {"measurement": "relative viability", "setting": "[20]; first compound 2.53 µM", "value": 0.33}, {"measurement": "relative viability", "setting": "[21]; first compound 0.08 µM", "value": 0.418}, {"measurement": "relative viability", "setting": "[21]; first compound 0.253 µM", "value": 0.405}, {"measurement": "relative viability", "setting": "[21]; first compound 0.8 µM", "value": 0.384}, {"measurement": "relative viability", "setting": "[21]; first compound 2.53 µM", "value": 0.286}, {"measurement": "relative viability", "setting": "[22]; first compound 0.08 µM", "value": 0.339}, {"measurement": "relative viability", "setting": "[22]; first compound 0.253 µM", "value": 0.315}, {"measurement": "relative viability", "setting": "[22]; first compound 0.8 µM", "value": 0.352}, {"measurement": "relative viability", "setting": "[22]; first compound 2.53 µM", "value": 0.376}, {"measurement": "relative viability", "setting": "[23]; first compound 0.08 µM", "value": 0.769}, {"measurement": "relative viability", "setting": "[23]; first compound 0.253 µM", "value": 0.674}, {"measurement": "relative viability", "setting": "[23]; first compound 0.8 µM", "value": 0.756}, {"measurement": "relative viability", "setting": "[23]; first compound 2.53 µM", "value": 0.567}]}]}
